# Experimental data: patent publication US6620428B1, “Transdermally administered acetylcysteine as mucolytic agent” (Pharmacia AB, priority 1996, dated 2003)
# Like-named read-outs stand apart in the source and are kept apart here.
# What was measured:
# [1] = assay type: in vitro ADME; conditions: pig
# Text: Quantitative determination of N-Acetyl-L-cysteine in the receptor solution samples from the skin permeation studies in Example 2 and from the membrane permeation studies in Example 3, and quantitative determination of N-Acetyl-L-cysteine in the samples from the stability studies in Example 6, was done by the HPLC method described under Apparatus.
# In vitro permeation of N-Acetyl-L-cysteine from the solutions 1, 2, 3 and 4 through dermatomed pig skin was investigated in Franz diffusion Cells.
# Skin pieces with a thickness of approximately 765 μm were dermatomed from full thickness pig skin and mounted in glass diffusion cells with an available diffusion area of 1.8 cm^2. Pig skin is a fully accepted model for human skin. The solutions 1, 2, 3 and 4 were applied separately on the skin surfaces and the dermal sides were all exposed to 12.1 ml receptor solution consisting of 0.0001M hydrochloric acid equilibrated to 37±1° C.
# Permeation of N-Acetyl-L-cysteine was followed by removing samples periodically and measuring the concentration by the HPLC method according to Example 1. An increase in the permeated amount of N-Acetyl-L-cysteine is seen in the following order: Propylene glycol, water, ethanol and propylene glycol containing 5% azone added used as solvents. […]
# [2] = oral administration, cited from earlier work
smiles,measurement,setting,value
CC(=O)N[C@@H](CS)C(=O)O [N-Acetyl-L-cysteine],estimated fluxes of N-Acetyl-L-cysteine through skin,[1],4-48 μg/cm^2/h
same,amount permeated through skin after 20 hours,[1]; 20 h,about 3000 μg/cm^2
same,bioavailability when administered perorally,[2],4%
same,bioavailability when administered perorally,[2]; listed as N-Acetyl-cysteine,4-10%
